Reference: patent US20250223303A1, “TRICYCLIC BORONIC ACID DERIVATIVE, AND PREPARATION METHOD THEREFOR AND APPLICATION THEREOF” (priority 2021, published 2025)

How the values were obtained:
[1] = test system: Klebsiella pneumoniae ARLG 1196; assay: MIC test of compounds in combination with antibiotics, Klebsiella pneumoniae ARLG 1196; conditions: for MIC of biapenem in combination with compound, Klebsiella pneumoniae ARLG-1196 CTM-1 group, SHV, NDM, TEM: Biapenem + compound (8 μg/mL); for MIC of meropenem in combination with compound, Klebsiella pneumoniae ARLG-1196 CTM-1 group, SHV, NDM, TEM: Meropenem + compound (8 μg/mL)
[2] = test system: Acinetobacter baumannii ARLG-1791 OXA-23; assay: MIC test of compounds in combination with antibiotics, Acinetobacter baumannii ARLG-1791; conditions: for MIC of biapenem in combination with compound, Acinetobacter baumannii ARLG-1791 OXA-23: Biapenem + compound (8 μg/mL); for MIC of meropenem in combination with compound, Acinetobacter baumannii ARLG-1791 OXA-23: Meropenem + compound (8 μg/mL)
[3] = test system: Acinetobacter baumannii ARLG-1853 OXA-23; assay: MIC test of compounds in combination with antibiotics, Acinetobacter baumannii ARLG-1853; conditions: for MIC of biapenem in combination with compound, Acinetobacter baumannii ARLG-1853 OXA-23: Biapenem + compound (8 μg/mL); for MIC of meropenem in combination with compound, Acinetobacter baumannii ARLG-1853 OXA-23: Meropenem + compound (8 μg/mL)
[4] = test system: Acinetobacter baumannii ARLG-1809 OXA-23; assay: MIC test of compounds in combination with antibiotics, Acinetobacter baumannii ARLG-1809; conditions: for MIC of biapenem in combination with compound, Acinetobacter baumannii ARLG-1809 OXA-23: Biapenem + compound (8 μg/mL); for MIC of meropenem in combination with compound, Acinetobacter baumannii ARLG-1809 OXA-23: Meropenem + compound (8 μg/mL)
[5] = test system: Acinetobacter baumannii WX-AB013; assay: MIC test of compounds in combination with antibiotics, Acinetobacter baumannii WX-AB013; conditions: for MIC of biapenem in combination with compound, Acinetobacter baumannii WX-AB013: Biapenem + compound (8 μg/mL); for MIC of meropenem in combination with compound, Acinetobacter baumannii WX-AB013: Meropenem + compound (8 μg/mL)
[6] = test system: Klebsiella pneumoniae ATCC BAA-2470; assay: MIC test of compounds in combination with antibiotics, Klebsiella pneumoniae ATCC BAA-2470; conditions: for MIC of biapenem in combination with compound, Klebsiella pneumoniae ATCC BAA-2470 NDM-1: Biapenem + compound (8 μg/mL); for MIC of meropenem in combination with compound, Klebsiella pneumoniae ATCC BAA-2470 NDM-1: Meropenem + compound (8 μg/mL)
[7] = test system: Escherichia coli ARLG 2829; assay: MIC test of compounds in combination with antibiotics, Escherichia coli ARLG 2829; conditions: for MIC of biapenem in combination with compound, Escherichia coli ARLG-2829 NDM-5, OXA-1: Biapenem + compound (8 μg/mL); for MIC of meropenem in combination with compound, Escherichia coli ARLG-2829 NDM-5, OXA-1: Meropenem + compound (8 μg/mL)
[8] = test system: Acinetobacter baumannii ARLG-1852 OXA-23; assay: MIC test of compounds in combination with antibiotics, Acinetobacter baumannii ARLG-1852; conditions: for MIC of biapenem in combination with compound, Acinetobacter baumannii ARLG-1852 OXA-23: Biapenem + compound (8 μg/mL); for MIC of meropenem in combination with compound, Acinetobacter baumannii ARLG-1852 OXA-23: Meropenem + compound (8 μg/mL)
[9] = test system: Klebsiella pneumoniae ATCC BAA-1705; assay: MIC test of compounds in combination with antibiotics, Klebsiella pneumoniae ATCC BAA-1705; conditions: for MIC of biapenem in combination with compound, Klebsiella pneumoniae ATCC BAA-1705 KPC-2: Biapenem + compound (8 μg/mL); for MIC of meropenem in combination with compound, Klebsiella pneumoniae ATCC BAA-1705 KPC-2: Meropenem + compound (8 μg/mL)
[10] = test system: Acinetobacter baumannii WX-AB005; assay: MIC test of compounds in combination with antibiotics, Acinetobacter baumannii WX-AB005; conditions: for MIC of biapenem in combination with compound, Acinetobacter baumannii WX-AB005: Biapenem + compound (8 μg/mL); for MIC of meropenem in combination with compound, Acinetobacter baumannii WX-AB005: Meropenem + compound (8 μg/mL)

| MIC of biapenem in combination with compound, Klebsiella pneumoniae ARLG-1196 CTM-1 group, SHV, NDM, TEM [1] | MIC of meropenem in combination with compound, Klebsiella pneumoniae ARLG-1196 CTM-1 group, SHV, NDM, TEM [1] | MIC of biapenem in combination with compound, Acinetobacter baumannii ARLG-1791 OXA-23 [2] | MIC of meropenem in combination with compound, Acinetobacter baumannii ARLG-1791 OXA-23 [2] | MIC of biapenem in combination with compound, Acinetobacter baumannii ARLG-1853 OXA-23 [3] | MIC of meropenem in combination with compound, Acinetobacter baumannii ARLG-1853 OXA-23 [3] | MIC of biapenem in combination with compound, Acinetobacter baumannii ARLG-1809 OXA-23 [4] | MIC of meropenem in combination with compound, Acinetobacter baumannii ARLG-1809 OXA-23 [4] | MIC of biapenem in combination with compound, Acinetobacter baumannii WX-AB013 [5] | MIC of meropenem in combination with compound, Acinetobacter baumannii WX-AB013 [5] | MIC of biapenem in combination with compound, Klebsiella pneumoniae ATCC BAA-2470 NDM-1 [6] | MIC of meropenem in combination with compound, Klebsiella pneumoniae ATCC BAA-2470 NDM-1 [6] | MIC of biapenem in combination with compound, Escherichia coli ARLG-2829 NDM-5, OXA-1 [7] | MIC of meropenem in combination with compound, Escherichia coli ARLG-2829 NDM-5, OXA-1 [7] | MIC of biapenem in combination with compound, Acinetobacter baumannii ARLG-1852 OXA-23 [8] | MIC of meropenem in combination with compound, Acinetobacter baumannii ARLG-1852 OXA-23 [8] | MIC of biapenem in combination with compound, Klebsiella pneumoniae ATCC BAA-1705 KPC-2 [9] | MIC of meropenem in combination with compound, Klebsiella pneumoniae ATCC BAA-1705 KPC-2 [9] | MIC of biapenem in combination with compound, Acinetobacter baumannii WX-AB005 [10] | MIC of meropenem in combination with compound, Acinetobacter baumannii WX-AB005 [10] | SMILES |
| --- | --- | --- | --- | --- | --- | --- | --- | --- | --- | --- | --- | --- | --- | --- | --- | --- | --- | --- | --- | --- |
| 0.25 µg/mL | 0.5 µg/mL | 0.25 µg/mL | 2 µg/mL | ≤0.125 µg/mL | 2 µg/mL | 0.5 µg/mL | 2 µg/mL | 0.5 µg/mL | 2 µg/mL | 0.25 µg/mL | ≤0.125 µg/mL | 0.25 µg/mL | ≤0.125 µg/mL | 0.25 µg/mL | 1 µg/mL | ≤0.125 µg/mL | ≤0.125 µg/mL | 1 µg/mL | 4 µg/mL | NC1COCC1Sc1ccc2c(c1C(=O)O)OB(O)C1CC21 (single isomer, unassigned) [Compound 11_P1] |
| 0.25 µg/mL | 2 µg/mL | 0.25 µg/mL | 2 µg/mL | ≤0.125 µg/mL | 1 µg/mL | 0.25 µg/mL | 2 µg/mL | 0.5 µg/mL | 2 µg/mL | 0.25 µg/mL | 0.5 µg/mL | ≤0.125 µg/mL | ≤0.125 µg/mL | ≤0.125 µg/mL | 1 µg/mL | 0.25 µg/mL | ≤0.125 µg/mL | 1 µg/mL | 4 µg/mL | NC1COCC1Sc1ccc2c(c1C(=O)O)OB(O)C1CC21 (single isomer, unassigned) [Compound 11_P2] |
| 1 µg/mL | 2 µg/mL | 2 µg/mL | 8 µg/mL | 1 µg/mL | 16 µg/mL | 2 µg/mL | 8 µg/mL | 2 µg/mL | 4 µg/mL | 0.25 µg/mL | 8 µg/mL | 1 µg/mL | 16 µg/mL | 1 µg/mL | 4 µg/mL | ≤0.125 µg/mL | ≤0.125 µg/mL | 4 µg/mL | 8 µg/mL | O=C(O)c1c(SCCN2CCOCC2)ccc2c1OB(O)C1CC21 (single isomer, unassigned) [Compound 15-a] |
| ≤0.125 µg/mL | ≤0.125 µg/mL | 0.5 µg/mL | 4 µg/mL | 0.25 µg/mL | 4 µg/mL | 1 µg/mL | 2 µg/mL | 1 µg/mL | 4 µg/mL | ≤0.125 µg/mL | 1 µg/mL | 0.25 µg/mL | 1 µg/mL | 0.25 µg/mL | 2 µg/mL | ≤0.125 µg/mL | ≤0.125 µg/mL | 2 µg/mL | 4 µg/mL | O=C(O)c1c(SCCN2CCOCC2)ccc2c1OB(O)C1CC21 (single isomer, unassigned) [Compound 15-b] |
| 0.5 µg/mL | 1 µg/mL | 0.5 µg/mL | 4 µg/mL | 0.5 µg/mL | 2 µg/mL | 1 µg/mL | 2 µg/mL | 0.5 µg/mL | 4 µg/mL | 1 µg/mL | 2 µg/mL | 0.25 µg/mL | 2 µg/mL | 0.25 µg/mL | 2 µg/mL | 0.5 µg/mL | 4 µg/mL | 2 µg/mL | 8 µg/mL | CC(Sc1ccc2c(c1C(=O)O)OB(O)C1CC21)C1CC1 (single isomer, unassigned) [Compound 16-a] |
